From US5189034A, “Benzoxazinone and benzothiazinone derivatives endowed with cardiovascular activity” (Italfarmaco S.P.A., priority 1990, dated 1993)

How the values were obtained:
[1] = tested on: Arg-vasopressin induced coronaric spasm in anesthetized Sprague Dawley rats; assay: antianginal activity in vivo, Arg-vasopressin-induced coronaric spasm (increase of the T-wave); conditions: for % Inhibition of the increase of the T-wave versus the controls: 3 mg/Kg per os, Arg-vasopressin i.v.; for ED50: Rattus norvegicus, iv, 4 increasing doses, Arg-vasopressin, read-out: ED50 (i.v.), dose yielding the 50% inhibition of the increase of the T-wave
Experimental: The antianginal activity in vivo was determined on anesthetized Sprague Dawley rats of weight 350-400 g, operating according to the method of M. Leitold et al., Arzeim. Forsch., 36, 1454, (1986). The test was carried out by intravenously administering the animals with one I.U/Kg, equivalent to […] of Arg-vasopressin, thus inducing a coronaric spasm that is reproducible and may be electrocardiographically monitored by an increase of the T-wave. The compounds of the invention were administered by gastric gavage at a dose of 3 mg/Kg one […] before the administration of Arg-vasopressin. The antianginal effect was expressed as the percentage inhibition of the increase of the T-wave versus the controls. Another group of animals were intravenously administered with 4 increasing doses of the compound of the invention to measure their ED50, i.e. the dose yielding the 50% inhibition of the increase of the T-wave.

[2] = tested on: rabbit aorta strip contracted with noradrenaline; assay: rabbit aorta strip contracted with noradrenaline (in vitro vasorelaxing activity); type: cell-based; conditions: Oryctolagus cuniculus, concentration causing 50% inhibition of the contraction of the rabbit aorta strip, read-out: Vasodilative activity in vitro IC50
Experimental: The in vitro vasorelaxing activity was determined by the test of the rabbit aorta strip contracted with noradrenaline. The test was carried out according to the method described by K. Murakami et al., Eur. J. Pharmacol., 141, 195 (1987).
The IC50 values i.e., the concentrations of active substances, causing a 50% inhibition of the contraction of the rabbit strip, were determined.

[3] = B. W. Horrom et al., J. Org. Chem., 72, 721 (1950); cited from earlier work

SMILES | % Inhibition of the increase of the T-wave versus the controls [1] [%] | ED50 [1] [mg/kg] | IC50 [2] [nM] | analgesic activity [3]
Cc1ccc2c(c1)OCN(CCO[N+](=O)[O-])C2=O [Example 4, 2,3-Dihydro-7-methyl-3-(2'-nitrooxyethyl)-4H-1,3-benzoxazin-4-one] | 31 | 0.012 | 75 | –
O=C1c2ccccc2SCN1CCO[N+](=O)[O-] [Example 10, 3(2'-nitrooxyethyl)-2,3-dihydro-4H-1,3-benzothiazin-4-one] | – | – | 17 | –
COc1ccc2c(c1)OCN(CCO[N+](=O)[O-])C2=O [Example 9, 2,3-Dihydro-7-methoxy-3-(2'-nitrooxyethyl)-4H-1,3-benzoxazin-4-one] | – | – | 14 | –
O=C1c2ccccc2OCN1CCCCCO[N+](=O)[O-] [Example 8, 2,3-Dihydro-3-(5'-nitrooxypentyl)-4H-1,3-benzoxazin-4-one] | – | 0.058 | 19 | –
O=C1c2ccc(Cl)cc2OCN1CCO[N+](=O)[O-] [Example 3, 7-Chloro-2,3-dihydro-3-(2'-nitrooxyethyl)-4H-1,3-benzoxazin-4-one] | 31 | 0.011 | 6.3 | –
O=C1c2ccccc2OCN1CCO[N+](=O)[O-] [Example 1, 2,3-Dihydro-3-(2'-nitrooxyethyl)-4H-1,3-benzoxazin-4-one] | 55 | 0.0013 | 94 | –
O=C1NC(c2ccccc2)Oc2ccccc21 (stereo not shown) [2,3-dihydro-2-phenyl-4H-1,3-benzoxazin-4-one] | – | – | – | endowed with analgesic activity
Cc1ccc2c(c1)C(=O)N(CCO[N+](=O)[O-])CO2 [Example 2, 2,3-Dihydro-6-methyl-3-(2'-nitrooxyethyl)-4H-1,3-benzoxazin-4-one] | – | 0.0063 | 5.4 | –
